The text below walks through data of patent US20220332876A1, “HYDROPHILIC-HYDROPHOBIC COPOLYMER CARRYING SHORT CHAIN FATTY ACID ESTER” (UNIVERSITY OF TSUKUBA, priority 2019, published 2022).

A short description of data set [1]: Pharmacokinetic study (2): phenylbutyric acid monomer in plasma and liver by LC/MS. Format: in vivo, ICR mice. As to conditions: 200 mg/kg (1.22 mmol-4PBA/kg); blood and liver. On the procedure:
Forty-five (45) 7-week-old ICR mice (male) were randomly divided into the following three groups. Doses for the administration groups 2GP and 3GP were determined so that the amount of phenylbutyric acid contained therein reached 200 mg/kg (1.22 mmol-4PBA/kg). After each sample is administered nearly simultaneously to all the mice, 1 mL of blood is taken by cardiac puncture, according to each endpoint (7 endpoints of 30 min, 1 h, 2 h, 4 h, 12 h, 16 h, 24 h), to separate plasma. The target organ, liver, was also taken out from each of the mice, and content of the phenyl butyric acid monomer was quantified by high performance liquid chromatography/mass spectrometry (LC/MS). The measurement results are illustrated in FIG. 43. In these figures, PBA was totally metabolized within 4 hours, whereas 4-Ph-BNP persistently released the phenylbutyric acid monomer in the blood and in the liver, and the release was not terminated even after 24 hours.
1GP: Saline (control, 3 mice) 2GP: 4-Phenylbutyric acid (7 endpoints (30 min, 1 h, 2 h, 4 h, 12 h, 16 h, and 24 h)×3 mice) 3GP: Ph-BNP (7 endpoints (30 min, 1 h, 2 h, 4 h, 12 h, 16 h, and 24 h)×3 mice)

The conditions of data set [2]: mouse, in vivo. On the procedure: (§1) Seven 7 to 8-week-old C57BL/6J mice (male) per group were obtained from Charles River Japan, Inc (Yokohama). These mice were bred while being freely fed with a standard solid feed at controlled temperature (23±1° C.) and humidity (50±5%) in a controlled temperature (23±1° C.) and humidity (50±5%) under non-pathogenic conditions in 12 hours dark/light cycles. The mice were randomly divided into the following administration groups of GP1 to GP6, and allowed to freely drink each sample described until Day 36. One day later, a glucose resistance test was performed. In the test, the body weight and sample consumption for each mouse were monitored every day. The sample was then replaced with drinking water until the end of the test (Day 40).
These organs were stored in a 10% neutral buffer for further histological analysis. The Student's t-test is the same as described above.
(§2) The organs of the mice taken out after dissection were fixed by immediately putting them in a 10% neutral formalin solution and immersing them therein for 1 day. Thereafter, the solution was replaced with a 70% ethanol solution for paraffin embedding. All the organs after the paraffin embedding were processed into tissue sections with a thickness of 5 μm, which were hematoxylin/eosin (HE) stained by a routine method. The tissue sections were dehydrated with high-concentration alcohol and washed with xylene, followed by microscope examination (biorevo, BZ-9000, Keyence). A villus length was measured by ImageJ software (NIH). […] The t-test is the same as described above.

Data set [3] is described as follows: Antidiabetic test (glucose resistance test, pancreatic histology). Format: in vivo, C57BL/6J mice. As to conditions: for size of the islets of Langerhans: H & E stained pancreatic tissue; for glucose concentration in glucose resistance test: glucose 2 g/kg orally, [glucose]60 min−[glucose]0 min, compared with the diabetic model mice. On the procedure: as §1
(2) The glucose resistance test was performed to evaluate the therapeutic effects of short chain fatty acids in controlling the metabolism of the administered glucose. Sixteen (16) hours after overnight constraint, glucose (2 g/kg) was orally administered to the mice. One hour before and after the glucose administration, 10 μL of blood was collected from the tail vein, and mixed with heparin-containing (50 units/mL) saline in a volume (v:v) ratio of 1:1. A glucose concentration in the diluted blood was measured by FUJI DRY-CHEM 7000V (FUJIFILM Corporation). A final blood glucose concentration was calculated by the following equation:
Final glucose concentration (mg/mL)=[glucose]60 min−[glucose]0 min
as §2, with “In accordance with a routine method, all” for “All”, “alcohol,” for “alcohol and”, “then fixed, and subjected to” for “followed by”, “region of the islets of Langerhans” for “villus length”, “determined” for “measured”, “(NIH). The results are illustrated in FIG. 30.” for “(NIH).”

The nature of data set [4]: Body weight in radiation enhancer Test Example 10. The data set is classed as in vivo, C57BL/6J mice. The protocol: Five or seven 5 to 7-week-old C57BL/6J mice per group obtained similarly as in the above test were bred under similar conditions. 0.076×10^6 melanoma B16F10 cells per 100 μL (serum free DMEM) were injected subcutaneously into the outer side of the right thigh of each of the mice (Day 9 before irradiation). […] The irradiation conditions were set to 10 Gy, 150 kV, 20 mA, Al+Cu (0.5 mm+0.1 mm) filtration, and 330 mm intervals.
(3) The data on body weight changes in the mice as mean SD values (n=7) are illustrated in FIG. 35. The t-test is the same as described above.

In a further data set the test system is melanoma B16F10 cells. The experiment in a line: Effect 2 as radiation enhancer (melanoma xenograft model). The data set is classed as in vivo, C57BL/6J mice. As to conditions: for tumor weight / tumor size at the end of the test: Day 6 after irradiation. On the procedure:
Five or seven 5 to 7-week-old C57BL/6J mice per group obtained similarly as in the above test were bred under similar conditions. 0.076×10^6 melanoma B16F10 cells per 100 μL (serum free DMEM) were injected subcutaneously into the outer side of the right thigh of each of the mice (Day 9 before irradiation). When the cancer volume reached from 350 to 560 mm^3, the mice were randomly divided into the following administration groups. The irradiation conditions were set to 10 Gy, 150 kV, 20 mA, Al+Cu (0.5 mm+0.1 mm) filtration, and 330 mm intervals.
The cancer volume was calculated in the same manner as described above.
GP4: Butyric acid (i.p.; 250 mg/kg) (6 hours before irradiation)+IR group (n=7)
GP5: Butyric acid (i.p.; 500 mg/kg) (24 hours before irradiation)+IR group (n=7)
GP6: BNP (i.p.: 500 mg/kg) (6 hours before irradiation)+IR group (n=7)
GP7: BNP (i.p.: 500 mg/kg) (12 hours before irradiation)+IR group (n=7)
(1) The data on cancer proliferation profiles by 5 Gy irradiation after butyric acid and NP administration in a melanoma xenograft model is illustrated in FIG. 33.
(2) The data on the cancer weight at the end of the test (Day 6 after irradiation) is illustrated in FIG. 32 as mean±SEM values (n=from 2 to 7). The t-test is the same as in Test 8 (5).

Bounds are passed on as bounds.

In the case of `O=C(O)CCCc1ccccc1` [4-phenylbutyric acid], the “time until totally metabolized” value in data set [1] was not above 4 h.

In the case of `CCCC(=O)O` [butyric acid], the “villus length in the duodenum, jejunum, ileum, and large intestine” value (“villus length in the duodenum, jejunum” for short) in data set [2] is listed as “same trend”. The “size of the islets of Langerhans” value in data set [3] is on record as “reduced”. Further, the “glucose concentration in glucose resistance test” value in data set [3] is given as “no significant differences”. In data set [4] (i.p. before irradiation), the “body weight change / toxicity” value is recorded as “body weight decrease is found”. The entries for the “tumor proliferation suppressive effect (order of groups)” value with melanoma B16F10 cells (i.p. 6 hours before 5 Gy irradiation) and in the data set with melanoma B16F10 cells (i.p. 24 hours before 5 Gy irradiation) were “irradiation group <butyric acid (6 hours before) administration group” and “BNP (6 hours before) administration group=butyric acid (24 hours before) administration group”, respectively. The “tumor weight / tumor size at the end of the test” value with melanoma B16F10 cells (i.p. 6 hours before irradiation) and in the data set on melanoma B16F10 cells (i.p. 24 hours before irradiation) was “significantly reduced” in each case.

For the molecule `CCC(=O)O` [propionic acid], in data set [2], the “villus length in the duodenum, jejunum” value was “same trend”. In addition, in data set [3], the “size of the islets of Langerhans” value is given as “reduced” and the “glucose concentration in glucose resistance test” value is reported as “no significant differences”.

With “CH3O—(CH2CH2O)m—CH2PhCH2[CH2CH(OC(═O)CH2CH2CH3)]nS(═S)OCH2CH3 [N721]”, the “villus length in the duodenum, jejunum” value in data set [2] is “did not have a shortened villus length or damage to the digestive tract”. Moreover, in data set [4] (mouse, in vivo, ip), the “body weight change / toxicity” value was “does not have a body weight decrease”.
